The record followed here is patent US7858349B2, “Anti-cancer compounds” (The Regents of the University of Colorado, priority 1999, dated 2010).

The test system of assay [1] is SCLC strain SHP-77. The assay is described as follows: MTT assay for cell survival, SCLC SHP-77 in vitro. Conditions: ED50 for killing of SCLC strain SHP-77 in vitro, 4 days, 0 = no detectable activity. The format is cell-based, human. On the technique in general: Tetrazolium dyes change colour on reduction, which living cells bring about.
Assay [2] concerns PC3 PC cells. The assay is described as follows: Inhibition of PC3 tumor growth in vivo in nude mice. Further details: species or system athymic nude mice; key to PC3 In vivo % inhib.: an IC50 value of “0” represents no detectable anti-cancer activity for a drug in a given cell line; “Stim.” indicates the observation of a stimulatory activity on the growth of the cancer cell line. The conditions noted are these: percent inhibition of tumor growth in nude mice; prostate cancer; i.p. 5 mg/kg/every second day or 10 mg/kg/every fourth day. The procedure: Compounds having high in vitro cytotoxic activity were tested against implanted tumors in vivo. Athymic nude mice were implanted subcutaneously with suspensions (2 million SHP-77 SCLC cells, 1 million A549 NSCLC cells or 1.5 million PC3 PC cells) in Matrigel suspension. On the eighth day after tumor implantation groups of 5 mice bearing implants were injected intraperitoneally with the compounds being tested at 5 mg/kg/every second day or at 10 mg/kg/every fourth day; control animals were injected with an equal volume of isotonic saline. Less soluble compounds were initially dissolved in dimethyl sulfoxide (DMSO) and diluted with medium. In those cases the control injections contained the same concentration of DMSO. Tumor size was measured with a caliper three times per week. Tumor volume was calculated by the formula: Volume(cc)=3.14×(length)×(width)^2/6 At autopsy tumors were removed and weighed. Tumor inhibition was calculated on both weight and measurement basis. In each Table, an IC50 value of “0” represents no detectable anti-cancer activity for a drug in a given cell line and “Stim.” indicates the observation of a stimulatory activity on the growth of the cancer cell line.

Like-named read-outs stand apart in the source and are kept apart here.

As usually defined, the IC50 is the midpoint of a concentration-inhibition curve. Regarding `CC1(C)CC(NC(=O)C(Cc2ccc(OCc3c(Cl)cccc3Cl)cc2)NC(=O)COc2c(F)c(F)c(F)c(F)c2F)CC(C)(C)N1` (stereo not drawn) [Analog M-1358, F5po-OC2Y-Atmp], in assay [1] (read-out: SCLC SHP-77 IC50), the IC50 was 4.1 µM. Moreover, the “PC3 In vivo % inhib.” value in assay [2] was found to be 30%.
The corresponding values for `O=C(N[C@@H]1CN2CCC1CC2)C(Cc1ccc(OCc2c(Cl)cccc2Cl)cc1)NC(=O)C(c1ccccc1)C1CCCCC1` (single isomer, unassigned) [M-1550 #2] are 4 µM and “Stim”.
Take `O=C(C=Cc1c(F)c(F)c(F)c(F)c1F)NC(Cc1ccc(-c2ccccc2)cc1)C(=O)N1CC2CC1CN2Cc1ccccc1` (stereo not drawn) [Analog M-1268, F5c-Bip-Bdbh]: the IC50 in assay [1] (read-out: SHP-77 In vitro IC50) came out at 3 µM. Also, the “PC3 In vivo % inhib.” value in assay [2] is 36%.
As for `O=C(C=Cc1c(F)c(F)c(F)c(F)c1F)NC(Cc1ccc(F)cc1)C(=O)NC1CCN(Cc2ccccc2)CC1` (stereo not drawn) [Analog M-1156, F5c-PFF-Abzp], the IC50 in assay [1] (read-out: SHP-77 In vitro IC50) was 7.5 µM. The “PC3 In vivo % inhib.” value in assay [2] is on record as 56%.
Consider `CC1(C)CC(NC(=O)C(Cc2ccc(OCc3c(Cl)cccc3Cl)cc2)NC(=O)C2CC(=O)NC(=O)N2)CC(C)(C)N1` (stereo not drawn) [Analog M-1462, Hor-OC2Y-Atmp], for which the IC50 in assay [1] (read-out: SCLC SHP-77 IC50) is greater than 60 µM. The “PC3 In vivo % inhib.” value in assay [2] is 7%.
In the same order, the values of `COc1ccc2cc(C(C)C(=O)NC(Cc3ccc(C#N)cc3)C(=O)NC3CC(C)(C)NC(C)(C)C3)ccc2c1` (stereo not drawn) [Analog M-1508, Napr-PCNF-Atmp] are 23 µM and 45%.
In the same order, the values of `CC1(C)CC(NC(=O)C(Cc2ccc(OCc3c(Cl)cccc3Cl)cc2)NC(=O)C(=Cc2ccccc2)c2ccccc2)CC(C)(C)N1` (stereo not drawn) [Analog M-1400, Pcn-OC2Y-Atmp] are 1.3 µM and “Stim”.
With `CC1(C)CC(NC(=O)C(Cc2ccc(OCc3c(Cl)cccc3Cl)cc2)NC(=O)/C=C/c2cc(C(F)(F)F)cc(C(F)(F)F)c2)CC(C)(C)N1` (stereo not drawn) [Analog M-1444, Tf2c-OC2Y-Atmp], the IC50 in assay [1] (read-out: SCLC SHP-77 IC50) is 1.4 µM. Further, in assay [2], the “PC3 In vivo % inhib.” value is reported as 11%.
On to `CC1(C)CC(NC(=O)C(Cc2ccc(F)cc2)NC(=O)C=Cc2ccco2)CC(C)(C)N1` (stereo not drawn) [Analog M-1154, 2-Fa-PFF-Atmp], for which, in assay [1] (read-out: SHP-77 In vitro IC50), the IC50 is greater than 60 µM. In assay [2], the “PC3 In vivo % inhib.” value was “Stim”.
With `CC1(C)CC(NC(=O)C(Cc2ccc(OCc3c(Cl)cccc3Cl)cc2)NC(=O)C=CC(=O)c2ccccc2)CC(C)(C)N1` (stereo not drawn) [Analog M-1576, Bzac-OC2Y-Atmp], in assay [1] (read-out: SCLC SHP-77 IC50), the IC50 worked out at 6.2 µM. The “PC3 In vivo % inhib.” value in assay [2] was 57%.
The corresponding values for `COc1ccc2c(c1)c(CC(=O)NC(Cc1ccc(OCc3c(Cl)cccc3Cl)cc1)C(=O)NC1CN3CCC1CC3)c(C)n2C(=O)c1ccc(Cl)cc1` [Analog M-1588, Indo-OC2Y-(R)-Aqu] are 3.9 µM and 8%.
In the same order, the values of `Cc1ccc(CSC(C)(C)C(NC(=O)C=Cc2c(F)c(F)c(F)c(F)c2F)C(=O)NC2CC(C)(C)NC(C)(C)C2)cc1` (stereo not drawn) [Analog M-1430, F5c-Pen(Mbzl)-Atmp] are 6.1 µM and 50%.
The corresponding values for `O=C(C=Cc1c(F)c(F)c(F)c(F)c1F)NC(Cc1ccc(OCc2c(Cl)cccc2Cl)cc1)C(=O)NC1CN2CCC1CC2` [Analog M-1544, F5c-OC2Y-(R)-Aqu] are 6 µM and 28%.
Take `CC1(C)CC(NC(=O)[C@H](Cc2ccc(OCc3c(Cl)cccc3Cl)cc2)NC(=O)CC2CC3CCC2C3)CC(C)(C)N1` (stereo partly drawn) [Analog M-1650, Nba-OC2Y-Atmp]: the IC50 in assay [1] (read-out: SCLC SHP-77 IC50) amounted to 4.3 µM. Besides, the “PC3 In vivo % inhib.” value in assay [2] is reported as 40%.
In the case of `CC1(C)CC(NC(=O)C(Cc2c(F)c(F)c(F)c(F)c2F)NC(=O)C=Cc2c(F)c(F)c(F)c(F)c2F)CC(C)(C)N1` (stereo not drawn) [Analog M-1054, F5c-F5F-Atmp], the IC50 in assay [1] (read-out: SHP-77 In vitro IC50) amounted to 4.6 µM. In assay [2], the “PC3 In vivo % inhib.” value was determined as 47%.
Turning to `CC1(C)CC(NC(=O)C(Cc2ccc(OCc3c(Cl)cccc3Cl)cc2)NC(=O)C=Cc2ccc3c(c2)OCO3)CC(C)(C)N1` (stereo not drawn) [Analog M-1414, 34Mdc-OC2Y-Atmp], in assay [1] (read-out: SCLC SHP-77 IC50), the IC50 is 7.1 µM. The “PC3 In vivo % inhib.” value in assay [2] is on record as “Stim”.
The corresponding values for `CC1(C)CC(NC(=O)C(Cc2ccc(OCc3c(Cl)cccc3Cl)cc2)NC(=O)C#Cc2ccccc2)CC(C)(C)N1` (stereo not drawn) [Analog M-1398, Ppr-OC2Y-Atmp] are 8 µM and 65%.
The corresponding values for `CC1(C)CC(NC(=O)[C@H](Cc2ccc(OCc3c(Cl)cccc3Cl)cc2)NCc2cnc3ccccc3c2)CC(C)(C)N1` [Analog M-1604, 3Qum-OC2Y-Atmp] are 7.4 µM and “Stim”.
